Measured values as given in ChEMBL document CHEMBL3044692, “Biological activity of alpha-thujaplicin, the isomer of hinokitiol” (Biol Pharm Bull, 2004).
In brackets after ≈: the same amount, converted by molar mass. Activity calls are given as the source filed them. No cut-off for these calls is given here.

Assays:
Reticulitermes speratus [1] = assay: Insecticidal activity against Reticulitermes speratus assessed as mortality at 0.02 g/m'2 at 24 hr relative to control; assay type: functional
P388 [2] = assay: Growth inhibition of Mus musculus (mouse) P388 cells at 0.63 ug/ml after 24 hr by MTT assay; assay type: functional; details: P388, 24 h, read-out: GI
[3] = tested on: Colletotrichum orbiculare; assay: Antifungal activity against Colletotrichum orbiculare MAFF 306518 after 15 days by agar dilution method; assay type: functional; details: MAFF 306518, 360 h
Reticulitermes speratus [4] = assay: Insecticidal activity against Reticulitermes speratus assessed as mortality at 0.05 g/m'2 at 48 hr relative to control; assay type: functional
P388 [5] = assay: Growth inhibition of Mus musculus (mouse) P388 cells after 24 to 48 hr by MTT assay; assay type: functional, cell-based
P388 [6] = assay: Growth inhibition of Mus musculus (mouse) P388 cells at >1.25 ug/ml after 24 hr by MTT assay; assay type: functional
Reticulitermes speratus [7] = assay: Insecticidal activity against Reticulitermes speratus assessed as mortality at 0.03 g/m'2 at 24 hr relative to control; assay type: functional
Tyrophagus putrescentiae = assay: Acaricidal activity against Tyrophagus putrescentiae at high concentration; assay type: functional, organism-based
Reticulitermes speratus [8] = assay: Insecticidal activity against Reticulitermes speratus assessed as mortality at 0.01 g/m'2 at 48 hr relative to control; assay type: functional
Fusarium solani = assay: Antifungal activity against Fusarium solani IFO 9955 after 15 days by agar dilution method; assay type: functional; details: IFO 9955, 360 h
Reticulitermes speratus [9] = assay: Insecticidal activity against Reticulitermes speratus assessed as mortality at 0.01 g/m'2 at 24 hr relative to control; assay type: functional
Dermatophagoides farinae [10] = assay: Acaricidal activity against Dermatophagoides farinae assessed as mortality at 1 g/m'2 after 24 hr relative to control; assay type: functional
Dermatophagoides farinae [11] = assay: Acaricidal activity against Dermatophagoides farinae assessed as mortality at 0.01 g/m'2 after 24 hr relative to control; assay type: functional
Legionella pneumophila [12] = assay: Antibacterial activity against Legionella pneumophila SG 1 after 7 days by agar dilution method; assay type: functional; details: SG 1, 168 h
Reticulitermes speratus [13] = assay: Insecticidal activity against Reticulitermes speratus assessed as mortality at 0.03 g/m'2 at 48 hr relative to control; assay type: functional
Legionella pneumophila [14] = assay: Antibacterial activity against Legionella pneumophila SG 3 after 7 days by agar dilution method; assay type: functional; details: SG 3, 168 h
Pythium aphanidermatum = assay: Antifungal activity against Pythium aphanidermatum IFO 32440 after 15 days by agar dilution method; assay type: functional; details: IFO 32440, 360 h
Colletotrichum lagenaria = assay: Antifungal activity against Colletotrichum lagenaria after 15 days by agar dilution method; assay type: functional; details: 360 h
Reticulitermes speratus [15] = assay: Insecticidal activity against Reticulitermes speratus assessed as mortality at 0.05 g/m'2 at 24 hr relative to control; assay type: functional
Thanatephorus cucumeris = assay: Antifungal activity against Thanatephorus cucumeris IFO 30455 after 15 days by agar dilution method; assay type: functional; details: IFO 30455, 360 h
P388 [16] = assay: Growth inhibition of Mus musculus (mouse) P388 cells at >1.25 ug/ml after 48 hr by MTT assay; assay type: functional
P388 [17] = assay: Growth inhibition of Mus musculus (mouse) P388 cells at 0.63 ug/ml after 48 hr by MTT assay; assay type: functional; details: P388, 48 h, read-out: GI
Reticulitermes speratus [18] = assay: Insecticidal activity against Reticulitermes speratus assessed as mortality at 0.04 g/m'2 at 48 hr relative to control; assay type: functional
Dermatophagoides farinae [19] = assay: Acaricidal activity against Dermatophagoides farinae assessed as mortality at 0.1 g/m'2 after 24 hr relative to control; assay type: functional
Phomopsis obscurans = assay: Antifungal activity against Phomopsis obscurans MAFF 744018 after 15 days by agar dilution method; assay type: functional; details: Paraphomopsis obscurans, MAFF 744018, 360 h
Reticulitermes speratus [20] = assay: Insecticidal activity against Reticulitermes speratus assessed as mortality at 0.02 g/m'2 at 48 hr relative to control; assay type: functional
Dermatophagoides farinae [21] = assay: Acaricidal activity against Dermatophagoides farinae after 24 hr; assay type: functional
[22] = Toxicity against ip dosed Mus musculus Slc:ddY (mouse) after 8 days; assay type: organism-based; details: in vivo
Reticulitermes speratus [23] = assay: Insecticidal activity against Reticulitermes speratus at 48 hr; assay type: functional
Reticulitermes speratus [24] = assay: Insecticidal activity against Reticulitermes speratus assessed as mortality at 0.1 g/m'2 at 24 hr relative to control; assay type: functional
Dermatophagoides farinae [25] = assay: Acaricidal activity against Dermatophagoides farinae assessed as mortality at 0.5 g/m'2 after 24 hr relative to control; assay type: functional
Reticulitermes speratus [26] = assay: Insecticidal activity against Reticulitermes speratus assessed as mortality at 0.1 g/m'2 at 48 hr relative to control; assay type: functional
Reticulitermes speratus [27] = assay: Insecticidal activity against Reticulitermes speratus assessed as mortality at 0.04 g/m'2 at 24 hr relative to control; assay type: functional
Botrytis cinerea = assay: Antifungal activity against Botryotinia fuckeliana IFO 30915 after 15 days by agar dilution method; assay type: functional; details: IFO 30915, 360 h
Reticulitermes speratus [28] = assay: Insecticidal activity against Reticulitermes speratus assessed as mortality at 0.00025 g/m'2 at 48 hr relative to control; assay type: functional
Reticulitermes speratus [29] = assay: Insecticidal activity against Reticulitermes speratus assessed as mortality at 0.00050 g/m'2 at 24 hr relative to control; assay type: functional
Reticulitermes speratus [30] = assay: Insecticidal activity against Reticulitermes speratus assessed as mortality at 0.00050 g/m'2 at 48 hr relative to control; assay type: functional
Reticulitermes speratus [31] = assay: Insecticidal activity against Reticulitermes speratus assessed as mortality at 0.00010 g/m'2 at 48 hr relative to control; assay type: functional
Reticulitermes speratus [32] = assay: Insecticidal activity against Reticulitermes speratus assessed as mortality at 0.00005 g/m'2 at 48 hr relative to control; assay type: functional
Reticulitermes speratus [33] = assay: Insecticidal activity against Reticulitermes speratus assessed as mortality at 0.00025 g/m'2 at 24 hr relative to control; assay type: functional
Reticulitermes speratus [34] = assay: Insecticidal activity against Reticulitermes speratus assessed as mortality at 0.00005 g/m'2 at 24 hr relative to control; assay type: functional
Reticulitermes speratus [35] = assay: Insecticidal activity against Reticulitermes speratus assessed as mortality at 0.00001 g/m'2 at 24 hr relative to control; assay type: functional
Reticulitermes speratus [36] = assay: Insecticidal activity against Reticulitermes speratus assessed as mortality at 0.00010 g/m'2 at 24 hr relative to control; assay type: functional
Dermatophagoides farinae [37] = assay: Acaricidal activity against Dermatophagoides farinae assessed as mortality at 0.2 g/m'2 after 24 hr relative to control; assay type: functional
MDCK = assay: Cytotoxicity against MDCK cells; assay type: functional; details: Canis lupus familiaris
[38] = Cytotoxicity against Mus musculus (mouse) RL male 1; assay type: functional
HL-60 = assay: Cytotoxicity against Homo sapiens (human) HL60; assay type: functional, cell-based
Dermatophagoides farinae [39] = assay: Acaricidal activity against Dermatophagoides farinae assessed as mortality at 0.05 g/m'2 after 24 hr relative to control; assay type: functional
Dermatophagoides farinae [40] = assay: Acaricidal activity against Dermatophagoides farinae assessed as mortality at 0.02 g/m'2 after 24 hr relative to control; assay type: functional
[41] = Cytotoxicity against Homo sapiens (human) KATO III; assay type: functional
[42] = Cytotoxicity against Mus musculus (mouse) MH134; assay type: functional
K562 = assay: Cytotoxicity against Homo sapiens (human) K562; assay type: functional, cell-based
Colon 26 = assay: Cytotoxicity against Mus musculus (mouse) colon 26 cells; assay type: functional

CC(C)c1ccccc(=O)c1O [ALPHA-THUJAPLICIN]
mortality (Reticulitermes speratus [1]): 0%
inhibition of growth at 0.63 µg/mL (P388 [2]): 78%
MIC [3]: 12 µg/mL (≈ 73.1 µM)
mortality (Reticulitermes speratus [4]): 100%
growth inhibition (GI) (P388 [5]): Dose-dependent effect
growth inhibition (GI) (P388 [6]): 98%
mortality (Reticulitermes speratus [7]): 0%
Activity (Tyrophagus putrescentiae): inactive
mortality (Reticulitermes speratus [8]): 0%
MIC (Fusarium solani): 50 µg/mL (≈ 304 µM)
mortality (Reticulitermes speratus [9]): 0%
mortality (Dermatophagoides farinae [10]): 69.5%
mortality (Dermatophagoides farinae [11]): 1.1%
MIC (Legionella pneumophila [12]): 12.5 µg/mL (≈ 76.1 µM)
mortality (Reticulitermes speratus [13]): 100%
MIC (Legionella pneumophila [14]): 50 µg/mL (≈ 304 µM)
MIC (Pythium aphanidermatum): 12 µg/mL (≈ 73.1 µM)
MIC (Colletotrichum lagenaria): 12 µg/mL (≈ 73.1 µM)
mortality (Reticulitermes speratus [15]): 93.3%
MIC (Thanatephorus cucumeris): 12 µg/mL (≈ 73.1 µM)
growth inhibition (GI) (P388 [16]): 100%
inhibition of growth at 0.63 µg/mL (P388 [17]): 68%
mortality (Reticulitermes speratus [18]): 100%
mortality (Dermatophagoides farinae [19]): 0%
MIC (Phomopsis obscurans): 12 µg/mL (≈ 73.1 µM)
mortality (Reticulitermes speratus [20]): 0%
LC50 (Dermatophagoides farinae [21]): 0.66 g/m2
LD50 at 192 h [22]: 256 mg/kg
LC50 (Reticulitermes speratus [23]): 0.02 g/m2
mortality (Reticulitermes speratus [24]): 100%
mortality (Dermatophagoides farinae [25]): 38.4%
mortality (Reticulitermes speratus [26]): 100%
mortality (Reticulitermes speratus [27]): 13.3%
MIC (Botrytis cinerea): 25 µg/mL (≈ 152 µM)

CCOP(=S)(OCC)Oc1nc(Cl)c(Cl)cc1Cl [CHLORPYRIFOS]
mortality (Reticulitermes speratus [28]): 100%
mortality (Reticulitermes speratus [29]): 100%
mortality (Reticulitermes speratus [30]): 100%
mortality (Reticulitermes speratus [31]): 75%
mortality (Reticulitermes speratus [32]): 40%
mortality (Reticulitermes speratus [33]): 60%
mortality (Reticulitermes speratus [34]): 10%
mortality (Reticulitermes speratus [35]): 0%
LC50 (Reticulitermes speratus [23]): 0.00016 g/m2
mortality (Reticulitermes speratus [36]): 25%

CCN(CC)C(=O)c1cccc(C)c1 [DIETHYLTOLUAMIDE]
mortality (Dermatophagoides farinae [10]): 45.5%
mortality (Dermatophagoides farinae [37]): 7.2%
mortality (Dermatophagoides farinae [19]): 0%
LC50 (Dermatophagoides farinae [21]): 0.79 g/m2
mortality (Dermatophagoides farinae [25]): 20.5%

CC(C)c1cccc(=O)c(O)c1 [HINOKITIOL]
MIC (MDCK): 10 µg/mL (≈ 60.9 µM)
mortality (Reticulitermes speratus [1]): 0%
MIC [3]: 25 µg/mL (≈ 152 µM)
mortality (Reticulitermes speratus [4]): 100%
IC50 [38]: 0.3 µg/mL (≈ 1.83 µM)
IC50 (HL-60): 0.3 µg/mL (≈ 1.83 µM)
mortality (Dermatophagoides farinae [39]): 11.9%
mortality (Reticulitermes speratus [7]): 13.3%
mortality (Reticulitermes speratus [8]): 0%
mortality (Dermatophagoides farinae [40]): 2.6%
MIC (Fusarium solani): 50 µg/mL (≈ 304 µM)
mortality (Reticulitermes speratus [9]): 0%
mortality (Dermatophagoides farinae [10]): 100%
mortality (Dermatophagoides farinae [11]): 0%
MIC (Legionella pneumophila [12]): 6.25 µg/mL (≈ 38.1 µM)
mortality (Reticulitermes speratus [13]): 100%
MIC (Legionella pneumophila [14]): 25 µg/mL (≈ 152 µM)
IC50 [41]: 0.3 µg/mL (≈ 1.83 µM)
MIC (Pythium aphanidermatum): 12 µg/mL (≈ 73.1 µM)
MIC (Colletotrichum lagenaria): 25 µg/mL (≈ 152 µM)
IC50 [42]: 0.3 µg/mL (≈ 1.83 µM)
mortality (Reticulitermes speratus [15]): 100%
MIC (Thanatephorus cucumeris): 12 µg/mL (≈ 73.1 µM)
IC50 (K562): 0.3 µg/mL (≈ 1.83 µM)
mortality (Reticulitermes speratus [18]): 100%
mortality (Dermatophagoides farinae [19]): 99%
MIC (Phomopsis obscurans): 12 µg/mL (≈ 73.1 µM)
MIC (Colon 26): 10 µg/mL (≈ 60.9 µM)
mortality (Reticulitermes speratus [20]): 0%
LC50 (Reticulitermes speratus [23]): 0.03 g/m2
mortality (Reticulitermes speratus [24]): 100%
mortality (Reticulitermes speratus [26]): 100%
mortality (Reticulitermes speratus [27]): 100%
MIC (Botrytis cinerea): 50 µg/mL (≈ 304 µM)

O=c1cccccc1O [TROPOLONE]
IC50 [38]: 0.3 µg/mL (≈ 2.46 µM)
IC50 (HL-60): 0.3 µg/mL (≈ 2.46 µM)
IC50 [41]: 0.3 µg/mL (≈ 2.46 µM)
IC50 [42]: 0.3 µg/mL (≈ 2.46 µM)
IC50 (K562): 0.3 µg/mL (≈ 2.46 µM)

CC[C@]1(O)C[C@@H]2CN(CCc3c([nH]c4ccccc34)[C@@](C(=O)OC)(c3cc4c(cc3OC)N(C)[C@H]3[C@@](O)(C(=O)OC)[C@H](OC(C)=O)[C@]5(CC)C=CCN6CC[C@]43[C@@H]65)C2)C1 [VINBLASTINE]
inhibition of growth at 0.63 µg/mL (P388 [2]): 84%
